Consider four compounds from ChEMBL document CHEMBL1201862, “PubChem BioAssay data set” (2004).

What is called AC50 is the concentration giving half of the maximal activity seen.

In one assay the target is Beta Lactamase (Pseudomonas aeruginosa, UniProt Q932Y6). As to the kind of experiment: beta-lactamase reporter inhibitor potency, dose response, artefact control for TLR9-MyD88 binding inhibitor project, BLA reporter cells, FRET fluorescence (AID 588341).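 Further: cell based assay in CHO-K1 cells stably expressing beta-lactamase.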 It is filed as cell-based.
The test system of another assay is CHO. As to the kind of experiment: cytotoxicity in TLR9-MyD88 CHO cells, dose response, cytotoxicity control for TLR9-MyD88 binding inhibitor project, cell-based, luminescence (AID 588339).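 Further: CHO cells stably coexpressing TLR9 and MyD88 fusions from primary screen; compound exposure lasted 48 hours before viability readout.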 It is filed as functional, hamster. To be noted: Cricetulus griseus.
The target of assay [1] is T1, Endoribonuclease toxin MazF (Escherichia coli K-12, UniProt P0AE70).
T1 sequence (P0AE70 whole entry): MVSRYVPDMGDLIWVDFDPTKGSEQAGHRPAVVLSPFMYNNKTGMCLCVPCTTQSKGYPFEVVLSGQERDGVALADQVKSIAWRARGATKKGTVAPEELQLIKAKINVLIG
As to the kind of experiment: MazF toxin RNase activators, dose response, biochemical, fluorescence, single-stranded RNA substrate, uHTS hits (AID 588481). It is filed as functional.

In assay [2] the target is T1, Endoribonuclease toxin MazF. As to the kind of experiment: fluorescent RNA oligo signal without MazF, dose response, counter-screen for MazEF activator project, biochemical, fluorescence, single-stranded RNase substrate (AID 588502). It is filed as functional. (A counterscreen serves to expose hits that act by an unwanted route or on another target.)
Assay [3] concerns the target Arf-GAP with SH3 domain, ANK repeat and PH domain-containing protein 1 (Homo sapiens, UniProt Q9ULH1). The format is functional.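 Further: biochemical fluorescence polarization dose–response screen measuring inhibition of ASAP1; ASAP1 GAP domain stimulating GTP hydrolysis by truncated human ARF1.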
The subject of another assay is HEK293. As to the kind of experiment: inhibitors of LMP1-driven NF-kB reporter, dose response, cell-based, HEK293, luciferase, cherry-pick (AID 588343). The format is functional. To be noted: Homo sapiens.
Assay [4] can be described thus: MC4R antagonists, dose response, counter-screen for LGR2 antagonist project, cell-based, plate reader, cherry pick (AID 743444).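 Further: transfected HEK 293 cells stimulated with alpha-MSH peptide; potency of inhibitors of the alpha-MSH evoked signal.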 The format is functional.
A short description of assay [5]: HEK293 cell cytotoxicity, dose response, cytotoxicity control, plate reader, cherry-picked samples (AID 743446). The format is functional, cell-based.
Assay [6] in a line: LGR2 antagonists, dose response, cell-based, HEK293, CRE-luciferase reporter, cherry pick, set 2 (AID 743343).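 Further: transfected cells were stimulated with diluted bursicon conditioned medium after compound addition.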 The format is functional. Background: In a reporter assay the amount or activity of a reporter protein is the signal.
Assay [7] can be described thus: A549 cell cytotoxicity, dose response, cytotoxicity control, plate reader, cherry-pick, antagonist series (AID 743412). The format is functional, cell-based.
A short description of assay [8]: Luminescence Cell-Based Dose Response HTS to Identify Inhibitors of 5'UTR Stem-Loop Driven Prion Protein mRNA Translation in H4 Neuroglioblastoma Cells. [Related pubchem assays: 1827 (Project Summary), 1813 (Primary HTS)]. It is filed as functional.
Assay [9] can be described thus: inhibitors of SNCA 5'UTR-driven reporter translation, confirmation, H4 neuroglioma cells, luminescence (AID 1988). The format is functional, cell-based.
Assay [10] in a line: HepG2 cell cytotoxicity, dose response, cytotoxicity control, plate reader, cherry-pick, antagonist series (AID 743416). The format is functional, cell-based.
In a further assay the test system is HeLa. As to the kind of experiment: HeLa cell cytotoxicity, dose response, cytotoxicity control for MITF activator project, CellTiter-Glo luminescence, cherry-pick samples (AID 540259). It is filed as functional, cell-based. To be noted: Homo sapiens. A general note: In ATP-based viability assays light output follows the ATP content of the culture.
Assay [11] deals with T2, Corticotropin-releasing factor receptor 2/Corticotropin-releasing factor-binding protein (Homo sapiens, UniProt P24387+Q13324).
T2 sequence (Q13324 whole entry): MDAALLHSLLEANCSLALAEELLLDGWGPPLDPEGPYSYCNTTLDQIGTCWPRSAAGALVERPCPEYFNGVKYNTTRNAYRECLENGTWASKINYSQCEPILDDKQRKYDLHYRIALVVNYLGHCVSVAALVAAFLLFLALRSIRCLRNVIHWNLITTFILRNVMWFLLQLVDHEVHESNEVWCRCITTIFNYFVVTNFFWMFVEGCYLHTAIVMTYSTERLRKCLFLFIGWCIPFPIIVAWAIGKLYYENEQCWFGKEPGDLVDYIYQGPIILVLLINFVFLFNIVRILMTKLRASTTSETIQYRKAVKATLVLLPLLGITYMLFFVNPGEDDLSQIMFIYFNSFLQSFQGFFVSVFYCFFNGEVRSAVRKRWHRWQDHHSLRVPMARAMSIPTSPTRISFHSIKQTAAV
T2 sequence (P24387 whole entry): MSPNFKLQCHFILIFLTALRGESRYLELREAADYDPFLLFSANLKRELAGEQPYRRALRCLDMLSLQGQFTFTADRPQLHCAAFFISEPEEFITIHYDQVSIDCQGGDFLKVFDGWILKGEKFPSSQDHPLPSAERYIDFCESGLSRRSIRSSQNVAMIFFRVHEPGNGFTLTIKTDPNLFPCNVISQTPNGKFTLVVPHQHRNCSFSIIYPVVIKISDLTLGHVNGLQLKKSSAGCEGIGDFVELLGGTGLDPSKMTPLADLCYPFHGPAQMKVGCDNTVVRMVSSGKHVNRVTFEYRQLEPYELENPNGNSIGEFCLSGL
As to the kind of experiment: activators of CRF receptor 2 with binding protein – uHTS hits, confirmation (AID 602473). The format is functional. To be noted: read-out: EC50_Mean.

For assay [12], the target named is T2, Corticotropin-releasing factor receptor 2/Corticotropin-releasing factor-binding protein. As to the kind of experiment: Dose Response confirmation of uHTS hits for small molecule antagonists of the CRF-binding protein and CRF-R2 receptor complex. The format is functional. To be noted: read-out: IC50_Mean.

The source made the active and inactive calls. Some results are limits rather than exact numbers.

Beta Lactamase, sequence (Q932Y6 whole entry, the tested form may be a part): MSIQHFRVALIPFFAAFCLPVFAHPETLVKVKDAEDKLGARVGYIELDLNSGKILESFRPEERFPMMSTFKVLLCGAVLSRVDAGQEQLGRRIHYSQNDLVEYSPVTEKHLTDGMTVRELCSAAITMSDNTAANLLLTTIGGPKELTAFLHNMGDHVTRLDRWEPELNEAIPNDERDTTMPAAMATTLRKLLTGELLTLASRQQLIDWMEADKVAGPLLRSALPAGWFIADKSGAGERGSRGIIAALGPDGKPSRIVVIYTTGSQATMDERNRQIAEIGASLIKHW
Arf-GAP with SH3 domain, ANK repeat and PH domain-containing protein 1, sequence (Q9ULH1 whole entry, the tested form may be a part): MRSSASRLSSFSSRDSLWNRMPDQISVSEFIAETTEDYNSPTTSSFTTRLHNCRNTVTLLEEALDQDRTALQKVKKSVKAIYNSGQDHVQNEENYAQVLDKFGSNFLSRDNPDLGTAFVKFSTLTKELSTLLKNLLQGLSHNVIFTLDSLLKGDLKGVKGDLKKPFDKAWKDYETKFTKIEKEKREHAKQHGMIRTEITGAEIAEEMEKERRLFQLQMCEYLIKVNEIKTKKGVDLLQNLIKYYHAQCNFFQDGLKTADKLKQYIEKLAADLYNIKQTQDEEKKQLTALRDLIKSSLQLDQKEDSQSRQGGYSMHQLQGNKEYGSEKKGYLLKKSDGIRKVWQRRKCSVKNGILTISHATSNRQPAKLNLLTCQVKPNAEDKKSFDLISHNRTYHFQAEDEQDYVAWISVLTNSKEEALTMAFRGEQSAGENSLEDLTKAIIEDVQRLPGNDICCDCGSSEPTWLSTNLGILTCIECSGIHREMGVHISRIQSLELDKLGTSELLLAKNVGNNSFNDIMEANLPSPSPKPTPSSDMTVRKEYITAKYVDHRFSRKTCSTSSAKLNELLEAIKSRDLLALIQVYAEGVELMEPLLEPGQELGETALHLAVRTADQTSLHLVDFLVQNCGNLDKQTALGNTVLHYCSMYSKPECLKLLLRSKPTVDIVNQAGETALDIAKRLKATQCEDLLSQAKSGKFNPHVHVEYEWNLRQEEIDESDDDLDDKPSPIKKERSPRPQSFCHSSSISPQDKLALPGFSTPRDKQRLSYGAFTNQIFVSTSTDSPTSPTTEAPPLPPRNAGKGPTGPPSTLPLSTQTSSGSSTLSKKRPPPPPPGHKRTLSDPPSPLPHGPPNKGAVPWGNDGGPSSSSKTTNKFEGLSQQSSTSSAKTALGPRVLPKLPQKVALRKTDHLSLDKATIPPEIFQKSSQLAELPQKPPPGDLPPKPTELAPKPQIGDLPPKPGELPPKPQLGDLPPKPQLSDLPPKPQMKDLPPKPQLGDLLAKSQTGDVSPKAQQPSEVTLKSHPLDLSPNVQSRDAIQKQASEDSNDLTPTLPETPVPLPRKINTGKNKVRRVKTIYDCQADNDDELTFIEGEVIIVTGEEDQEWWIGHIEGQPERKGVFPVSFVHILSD

Regarding `COc1cc2c3nnc(-c4ccc(F)cc4)c-3cn(Cc3cccc(C)c3)c2cc1OC`, the values for the IC50 (on Beta Lactamase; in the assay with CHO; in assay [3]) were 3.92 µM (active), 10.2 µM (inactive) and 7.44 µM (active), respectively. Further, the EC50 is 24.1 µM (inactive) in assay [1] and 16.7 µM (active) in assay [2].

As for `O=C(Nc1ccccn1)c1onc2c1CCCC2`, the AC50 in the assay on HEK293 was 1.46 µM (active); in assay [4] it was 3.55 µM (active); in [5] it was > 52 µM (inactive); in assay [6], 3.65 µM (active); in assay [7], 45.1 µM (active); in assay [10], 15.9 µM (active). Further, the EC50 in [8] was 50.2 µM (active); in assay [9], 4.67 µM (active).

As to `Nc1c(C(=O)N2CCCC2)sc2nc(-c3ccccc3)ccc12`, the figures for the IC50 on Beta Lactamase and with CHO were 12.4 µM (inactive) and > 49.7 µM (inactive), respectively. Moreover, in the assay with HeLa, the AC50 is 197 µM (active).

On to `COc1ccc(C(=O)Nn2c(SCC(=O)NC3CCCCC3)nc3ccccc3c2=O)cc1`, for which, in the assay with HEK293, the AC50 is 6.79 µM (active). Further, the EC50 in [11] is > 53 µM (inactive). Besides, in assay [12], the IC50 was < 0.368 µM (active).
